What was measured:
[1] = system: bFGF-stimulated human umbilical vascular EC (HUVEC); assay: EC proliferation measurement, [3H]-thymidine incorporation assay; format: cell-based; conditions: for IC50: bFGF-stimulated (10 ng/ml) HUVEC, 3H-thymidine incorporation, 3 days; for EC Proliferation % Inhibition at 25 μM: bFGF-stimulated HUVEC
Procedure: Human umbilical vein derived EC (HUVEC) were harvested from normal human umbilical cords by perfusion with 0.125% trypsin/EDTA. Harvested HUVECs were cultured in gelatin coated tissue culture flasks and subcultured 1:3 once a week in culture medium (RPMI-1640 with 20% human serum (HS), supplemented with 2 mM glutamine and 100 U/ml penicillin and 0.1 mg/ml streptomycin). Bovine capillary EC (BCE) were kindly provided by Dr. M. Furie (State University of New York, Stony Brook, USA) and were cultured in fibronectin coated tissue culture flasks in RPMI-1640 medium containing 10% FCS, glutamine and antibiotics.
EC proliferation was measured using a [^3H]-thymidine incorporation assay. Proliferation of bFGF-stimulated (10 nanogram per milliliter (ng/ml)) human umbilical vascular EC (HUVEC) cultures was measured by quantification of ^3H-thymidine incorporation. Proliferation is expressed as mean counts per minute (cpm) of quadruplicate cultures in three independent experiments (±SEM). EC were seeded at 5000 cells/well in flat-bottomed tissue culture plates and grown for 3 days in the absence or presence of regulators, in culture medium. During the last 6 hours of the assay, the culture was pulsed with 0.5 μCi [methyl-^3H]-thymidine/well. Human umbilical vein derived EC (HUVEC) were harvested from normal human umbilical cords by perfusion with 0.125% trypsin/EDTA. Harvested HUVECs were cultured in gelatin coated tissue culture flasks and subcultured 1:3 once a week in culture medium (RPMI-1640 with 20% human serum (HS), supplemented with 2 mM glutamine and 100 U/ml penicillin and 0.1 mg/ml streptomycin).

bovine EC (BCE) = assay: In vitro angiogenesis assay, collagen gel-based sprout formation; format: cell-based; parameters: key to % Sprouting: —: No effect on the assay; conditions: for % Sprouting: BCE on cytodex-3 beads in collagen gel, 20 ng/mL bFGF, 24 hours, * = significant inhibition (p < 0.03); for Sprouting in collagen gel-based sprout formation assay: versus control showing numerous sprouts, data not shown
Procedure: Sprouting and tube formation of bovine EC (BCE) were studied using cytodex-3 beads overgrown with BCE in a 3-dimensional collagen gel (vitrogen-100, Collagen Corp., Fremont, Calif., USA) as described in D. Van der Schaft et al., Blood, 96,176-181 (2000). Following gelation, culture medium containing 20 ng/mL bFGF, with or without […] or DBF analogs, was applied on top of the gel. After 24 hours of cell culture at 37° C., photographs were made (not shown). The amount of sprouting in each well (i.e., the total length of the sprouts) was quantified by the computer program NIH image. To quantify differences in sprouting and tube formation, statistical analysis was performed using the Mann-Whitney U test.

[2] = system: MA148 human ovarian carcinoma tumors; assay: Immunohistochemistry of tumor sections (CD31 microvessel density, PCNA proliferation, TUNEL apoptosis); format: in vivo, mice; conditions: for Vessel density relative to control: anti-CD31 staining of tumor cross-sections; for End Points (mean number of vessel end points) / Branch Points (mean number of vessel branch points/nodes per image) / Proliferation (PCNA-staining, white pixels per field) / Vessel Density (CD31-staining, white pixels per field) / Vessel Length (mean total vessel length per image): tumors of treated mice, ± standard error; for End Points (mean number of vessel end points): after skeletonization
Procedure: Immunohistochemistry was used to assess microvessel density and the extent of total cell apoptosis. Tumor tissue was embedded in tissue freezing medium (Miles Inc, Elkart, Ind.) and shock frozen in liquid nitrogen. […] sections of tissue were prepared for immunohistochemical analysis. For this, tissue sections were brought to room temperature, air dried overnight, and then fixed in acetone for 10 minutes. Slides were allowed to air dry for at least 30 minutes and were washed three times for 5 minutes each in phosphate-buffered saline (PBS, pH 7.4). Samples were then blocked with PBS containing 0.1% bovine serum albumin and 3% human serum albumin for at least 30 minutes at room temperature in a humidified box. Samples were subsequently incubated with phycoerytrin (PE)-conjugated monoclonal antibody to CD31 (PECAM-1) in a 1:50 dilution (Pharmigen, San Diego, Calif.) to stain for microvessel density. After 1-hour incubation at room temperature, slides were washed with PBS and immediately imaged using an Olympus BX-60 fluorescence microscope at 200× magnification.
To assess the extent of total cell apoptosis, tissue sections were stained by using the TUNEL (terminal deoxyribonucleotidyl transferase-mediated dUTP-nick-end labeling) assay, which was performed according to the manufacturer's instructions (in situ cell death detection kit, fluorescein; TUNEL, Roche). Digital images were stored and processed using Adobe Photoshop (Adobe Inc., Mountain View Calif.).
Quantification of microvessel density, the rate of proliferation and total cell apoptosis were determined as described earlier (R. Wild et al., Microvasc. Res., 59, 368-376 (2000)). Statistical analysis was performed using the Student's t test.

[3] = system: MA148 human ovarian carcinoma; assay: MA148 xenograft ovarian carcinoma tumor model in athymic mice, tumor volume; conditions: for Inhibition of tumor growth ten days post-treatment: at sacrifice
Procedure: In all studies, female athymic nude mice (nu/nu, 5-6 weeks old) were used. These mice were purchased from the National Cancer Institute and allowed to acclimatize to local conditions for at least one week. Animals were given water and standard chow ad libitum, and were kept on a 12-hour light/dark cycle. […] Compounds were diluted in 100 mM SDS and administered using osmotic mini-pumps (Durect, Cupertino, Calif.). Exponentially growing MA148 human ovarian carcinoma cells, kindly provided by Prof. Ramakrishnan (R. P. Dings et al., Cancer Res., 63, 382-385 (2003)) were cultured in RPMI 1640 medium (Life Technologies, Grand Island, N.Y.). This medium was supplemented with 10% fetal bovine serum and 1% penicillin/streptomycin (Cellgro, Mediatech, Washington, D.C.) at 37° C. and 5% CO2. One hundred microliters (100 μL) of this tumor cell suspension (2×10^7 cells/ml) was then injected subcutaneously into the right flank of each mouse. Pumps were implanted into the left flank of mice for subcutaneous administration of compound over a 28-day treatment span.
Two variants of this model were used: prevention and intervention. For the prevention variant, treatment was initiated at the time of inoculation with MA148 cells. For the intervention variant, tumors were allowed to grow to an average size of 50 mm^3 (usually day 7 post inoculation) before treatment was initiated. With either variant, animals were randomized prior to the initiation of treatment. Treatment was administered via osmotic mini-pumps (Durect, Cupertino, Calif.), which were implanted subcutaneously in the left flank of mice. […] In each study, control groups of animals were administered either PBS or PBS containing human serum albumin.
Tumor volume was determined by measuring the diameters of tumors using calipers (Scienceware, Pequannock, N.J.) using the equation for the volume of a spheroid: (a^2×b×π)/6, where ‘a’ is the width and ‘b’ the length of the tumor. Measurements were performed two or three times per week. At the conclusion of an experiment, tumor weights were also taken following excision of the tumors from euthanized animals.

Substance	IC50 [1] [µM]	EC Proliferation % Inhibition at 25 μM [1] [%]	% Sprouting (bovine EC (BCE))	also measured
ANIKLSVQMKL-[DBF]-I [11DBF1]	23 ± 5			
ANIKLSVQMKL-[DBF]-IIVK [11DBF4]	35			
ANIKLSVQMKL-[DBF]-IIVKLN [11DBF6]	22			
ANIKLSVQMKL-[DBF]-IIVKLND [11DBF7]	12	92	23 ± 10%*	Sprouting in collagen gel-based sprout formation assay (bovine EC (BCE)): highly reduced sprouting; Vessel density relative to control [2]: significantly reduced; End Points (mean number of vessel end points) [2]: 21.2 ± 3.3 mean pixel counts per image; Branch Points (mean number of vessel branch points/nodes per image) [2]: 3.1 ± 0.9 mean pixel counts per image; Proliferation (PCNA-staining, white pixels per field) [2]: 553 ± 75 mean pixel counts per image; Vessel Density (CD31-staining, white pixels per field) [2]: 2879 ± 385 mean pixel counts per image; Vessel Length (mean total vessel length per image) [2]: 3.0 ± 0.6 mean pixel counts per image; Inhibition of tumor growth at the end of the four-week administration period (day 35) ([3]; intervention, day 35): about 50%; Inhibition of tumor growth ten days post-treatment ([3]; intervention): about 50%; Reduction of tumor volume relative to control animals ([3]; prevention model: treatment from time of inoculation, subcutaneous mini-pumps, 10 mg/kg/day): up to 90%
IKLSVQMKL-[DBF]-IIVKLND [9DBF7]	20	57	76 ± 40%*	
L-[DBF]-IIVKLND [1DBF7]	> 25	0	—	
MKL-[DBF]-IIVKLND [3DBF7]	> 25	0	84 ± 30%	
NIKLSVQMKL-[DBF]-IIVKLND [10DBF7]	12	69	57 ± 17.5%*	
QMKL-[DBF]-IIVKLND [4DBF7]	25	46	99 ± 5%	
SVQMKL-[DBF]-I [6DBF1]	76.1 ± 10.9			
SVQMKL-[DBF]-II [6DBF2]	> 25			
SVQMKL-[DBF]-IIV [6DBF3]	> 25			
SVQMKL-[DBF]-IIVK [6DBF4]	> 25			
SVQMKL-[DBF]-IIVKLN [6DBF6]	42			
SVQMKL-[DBF]-IIVKLND [6DBF7]	15	68	60 ± 12%*	Effect on tube formation (bovine EC (BCE)): significant inhibitory effect on tube formation; Sprouting in collagen gel-based sprout formation assay (bovine EC (BCE)): highly reduced sprouting; Number of apoptotic tumor cells ([2]; TUNEL, control 311±103): 851±162; Vessel density relative to control [2]: significantly reduced; End Points (mean number of vessel end points) [2]: 21.7 ± 2.6 mean pixel counts per image; Branch Points (mean number of vessel branch points/nodes per image) [2]: 2.3 ± 1.1 mean pixel counts per image; Proliferation (PCNA-staining, white pixels per field) [2]: 501 ± 68 mean pixel counts per image; Vessel Density (CD31-staining, white pixels per field) [2]: 2213 ± 256 mean pixel counts per image; Vessel Length (mean total vessel length per image) [2]: 2.5 ± 0.4 mean pixel counts per image; Inhibition of tumor growth ten days post-treatment ([3]; intervention): about 50%

From patent US7339023B2, “Partial peptide mimetics and methods” (Regents of the University of Minnesota, priority 2002, dated 2008)
